Data as given in patent US20260256792A1, “TREATMENT OF CHRONIC SPONTANEOUS URTICARIA BY ADMINISTERING (R)-2-[3-[4-AMINO-3-(2-FLUORO-4-PHENOXY-PHENYL)PYRAZOLO[3,4-D]PYRIMIDIN-1-YL]PIPERIDINE-1-CARBONYL]-4-METHYL-4-[4-(OXETAN-3-YL)PIPERAZIN-1-YL]PENT-2-ENENITRILE” (priority 2023, published 2026).

Test system: moderate-to-severe chronic spontaneous urticaria (CSU)
Assay: Phase 2 CSU study: urticaria activity score over 7 days (UAS7)
Assay type: in vivo, human
Parameters: key to UAS7 Median / UAS7 Change from baseline Median / UAS7 change from baseline, Q1 / UAS7 change from baseline, Q3 / UAS7 change from baseline, Max / UAS7 Change from baseline LS Mean (SE): UAS7 points; daily UAS score ranges 0–6 points/day, over 7 days
Excerpt: The study comprises a 12 week, randomized, double-blind, placebo-controlled, multi-center, dose-ranging efficacy and safety phase, followed by a 40 week open label extension (OLE) phase (see FIG. 1). The study consists of three phases and an optional OLE phase. […] Clinically, CSU is characterized by the spontaneous and recurrent appearance of pruritic hives. The proposed primary endpoints were the UAS7 at Week 12 in EU and EU reference countries and the ISS7 in the US. Regardless of where a participant was from, all assessments were the same. The UAS7 score is a composite score containing both the HSS7 and the ISS7. This allowed a global assessment of the two key components of urticaria: hives and itch. […] The UAS is a validated PRO measure. […] The daily UAS scores range from 0 to 6 point/day. […] Patients were to complete the UAS using the e-diary. […] The following secondary endpoints were to be analyzed using the same approach as for the primary endpoint: • Change from baseline in UAS7 at Week 4 • Change from baseline in UAS7 at Week 12 (for US and US reference countries) • Change from baseline in ISS7 at Week 12 (except US and US reference countries) • Change from baseline in HSS7 at Week 12 The following responder secondary endpoints were to be analyzed using the Cochran-Mantel-Haenszel test adjusted by region: • Proportion of participants with UAS7<6 at Week 12 • Proportion of participants with UAS7=0 at Week 12 Participants who received selected prohibited medications and/or rescue medications were to be considered as non-responders for time points after the medication usage. For other participants, all available data including those collected during the off-treatment period were to be used to determine the responder/non-responder status. Missing data were to be considered as non-responders.

[1] = Week 10, 400 mg TID, ITT population
[2] = Week 10, 400 mg TID, Omalizumab-Naïve
[3] = Week 10, 400 mg TID, Prior Omalizumab Use
[4] = Week 10, 400 mg TID, omalizumab-naive participants
[5] = Week 11, 400 mg BID, ITT population
[6] = Week 11, 400 mg BID, Omalizumab-Naïve
[7] = Week 11, 400 mg BID, Prior Omalizumab Use
[8] = Week 11, 400 mg BID, omalizumab-naive participants
[9] = Week 11, 400 mg QPM, ITT population
[10] = Week 11, 400 mg QPM, Omalizumab-Naïve
[11] = Week 11, 400 mg QPM, Prior Omalizumab Use
[12] = Week 11, 400 mg QPM, omalizumab-naive participants
[13] = Week 11, 400 mg TID, ITT population
[14] = Week 11, 400 mg TID, Omalizumab-Naïve

CC(C)(C=C(C#N)C(=O)N1CCC[C@@H](n2nc(-c3ccc(Oc4ccccc4)cc3F)c3c(N)ncnc32)C1)N1CCN(C2COC2)CC1 [rilzabrutinib, (R)-2-[3-[4-amino-3-(2-fluoro-4-phenoxy-phenyl)pyrazolo[3,4-d]pyrimidin-1-yl]piperidine-1-carbonyl]-4-methyl-4-[4-(oxetan-3-yl)piperazin-1-yl]pent-2-enenitrile]
Non-responder, UAS7 reduction from baseline of 10 points or more [1]: 14 (34.1) n (%)
OR for rilzabrutinib vs. placebo, UAS7 reduction of 10 points or more [1]: 2.018
RRD (%) for rilzabrutinib vs. placebo, UAS7 reduction of 10 points or more [1]: 15.7 %
Responder, UAS7 reduction from baseline of 10 points or more [1]: 27 (65.9) n (%)
UAS7 Change from baseline Median [2]: −20.00
UAS7 Mean (SD) [2]: 12.61 (9.89)
UAS7 Median [2]: 12.83
UAS7 Percent change from baseline Mean (SD) [2]: −58.08 (31.82) %
UAS7 Percent change from baseline Median [2]: −59.49%
UAS7 Change from baseline Mean (SD) [3]: −25.19 (15.27)
UAS7 Change from baseline Median [3]: −25.08
UAS7 Mean (SD) [3]: 7.83 (11.43)
UAS7 Median [3]: 4.00
UAS7 Percent change from baseline Mean (SD) [3]: −73.42 (30.92) %
UAS7 Percent change from baseline Median [3]: −84.09%
Non-responder, UAS7 reduction from baseline of 10 points or more [4]: 12 (34.3) n (%)
OR for rilzabrutinib vs. placebo, UAS7 reduction of 10 points or more [4]: 2.327
RRD (%) for rilzabrutinib vs. placebo, UAS7 reduction of 10 points or more [4]: 19.8 %
Responder, UAS7 reduction from baseline of 10 points or more [4]: 23 (65.7) n (%)
Non-responder, UAS7 reduction from baseline of 10 points or more [5]: 19 (46.3) n (%)
OR for rilzabrutinib vs. placebo, UAS7 reduction of 10 points or more [5]: 1.009
RRD (%) for rilzabrutinib vs. placebo, UAS7 reduction of 10 points or more [5]: 0.2 %
Responder, UAS7 reduction from baseline of 10 points or more [5]: 22 (53.7) n (%)
UAS7 Change from baseline Mean (SD) [6]: −14.86 (11.83)
UAS7 Change from baseline Median [6]: −19.00
UAS7 Mean (SD) [6]: 15.06 (13.80)
UAS7 Percent change from baseline Mean (SD) [6]: −51.82 (39.20) %
UAS7 Percent change from baseline Median [6]: −57.14%
UAS7 Change from baseline Mean (SD) [7]: −20.43 (19.00)
UAS7 Change from baseline Median [7]: −25.00
UAS7 Mean (SD) [7]: 11.57 (15.45)
UAS7 Median [7]: 2.00
UAS7 Percent change from baseline Mean (SD) [7]: −59.15 (51.57) %
UAS7 Percent change from baseline Median [7]: −92.59%
Non-responder, UAS7 reduction from baseline of 10 points or more [8]: 16 (45.7) n (%)
OR for rilzabrutinib vs. placebo, UAS7 reduction of 10 points or more [8]: 1.183
RRD (%) for rilzabrutinib vs. placebo, UAS7 reduction of 10 points or more [8]: 4.4 %
Responder, UAS7 reduction from baseline of 10 points or more [8]: 19 (54.3) n (%)
Non-responder, UAS7 reduction from baseline of 10 points or more [9]: 19 (50.0) n (%)
OR for rilzabrutinib vs. placebo, UAS7 reduction of 10 points or more [9]: 0.945
RRD (%) for rilzabrutinib vs. placebo, UAS7 reduction of 10 points or more [9]: −1.3 %
Responder, UAS7 reduction from baseline of 10 points or more [9]: 19 (50.0) n (%)
UAS7 Change from baseline Mean (SD) [10]: −11.28 (9.60)
UAS7 Change from baseline Median [10]: −11.00
UAS7 Mean (SD) [10]: 21.17 (11.16)
UAS7 Median [10]: 20.00
UAS7 Percent change from baseline Mean (SD) [10]: −35.34 (30.18) %
UAS7 Percent change from baseline Median [10]: −34.19%
UAS7 Change from baseline Mean (SD) [11]: −23.00 (NC)
UAS7 Change from baseline Median [11]: −23.00
UAS7 Mean (SD) [11]: 18.00 (NC)
UAS7 Median [11]: 18.00
UAS7 Percent change from baseline Mean (SD) [11]: −56.10 (NC) %
UAS7 Percent change from baseline Median [11]: −56.10%
Non-responder, UAS7 reduction from baseline of 10 points or more [12]: 19 (51.4) n (%)
OR for rilzabrutinib vs. placebo, UAS7 reduction of 10 points or more [12]: 0.946
RRD (%) for rilzabrutinib vs. placebo, UAS7 reduction of 10 points or more [12]: −1.3 %
Responder, UAS7 reduction from baseline of 10 points or more [12]: 18 (48.6) n (%)
Non-responder, UAS7 reduction from baseline of 10 points or more [13]: 14 (34.1) n (%)
OR for rilzabrutinib vs. placebo, UAS7 reduction of 10 points or more [13]: 1.624
RRD (%) for rilzabrutinib vs. placebo, UAS7 reduction of 10 points or more [13]: 10.3 %
Responder, UAS7 reduction from baseline of 10 points or more [13]: 27 (65.9) n (%)
UAS7 Change from baseline Median [14]: −17.00
UAS7 Median [14]: 13.00
UAS7 Percent change from baseline Mean (SD) [14]: −56.01 (34.22) %
UAS7 Percent change from baseline Median [14]: −60.00%
